Active and inactive are the calls of the source. No cut-off for these calls is given here.
Each molecule was assayed against T1, Epidermal growth factor receptor (Homo sapiens, UniProt P00533) (assay: not given). Details: not given.
T1 sequence (P00533 whole entry): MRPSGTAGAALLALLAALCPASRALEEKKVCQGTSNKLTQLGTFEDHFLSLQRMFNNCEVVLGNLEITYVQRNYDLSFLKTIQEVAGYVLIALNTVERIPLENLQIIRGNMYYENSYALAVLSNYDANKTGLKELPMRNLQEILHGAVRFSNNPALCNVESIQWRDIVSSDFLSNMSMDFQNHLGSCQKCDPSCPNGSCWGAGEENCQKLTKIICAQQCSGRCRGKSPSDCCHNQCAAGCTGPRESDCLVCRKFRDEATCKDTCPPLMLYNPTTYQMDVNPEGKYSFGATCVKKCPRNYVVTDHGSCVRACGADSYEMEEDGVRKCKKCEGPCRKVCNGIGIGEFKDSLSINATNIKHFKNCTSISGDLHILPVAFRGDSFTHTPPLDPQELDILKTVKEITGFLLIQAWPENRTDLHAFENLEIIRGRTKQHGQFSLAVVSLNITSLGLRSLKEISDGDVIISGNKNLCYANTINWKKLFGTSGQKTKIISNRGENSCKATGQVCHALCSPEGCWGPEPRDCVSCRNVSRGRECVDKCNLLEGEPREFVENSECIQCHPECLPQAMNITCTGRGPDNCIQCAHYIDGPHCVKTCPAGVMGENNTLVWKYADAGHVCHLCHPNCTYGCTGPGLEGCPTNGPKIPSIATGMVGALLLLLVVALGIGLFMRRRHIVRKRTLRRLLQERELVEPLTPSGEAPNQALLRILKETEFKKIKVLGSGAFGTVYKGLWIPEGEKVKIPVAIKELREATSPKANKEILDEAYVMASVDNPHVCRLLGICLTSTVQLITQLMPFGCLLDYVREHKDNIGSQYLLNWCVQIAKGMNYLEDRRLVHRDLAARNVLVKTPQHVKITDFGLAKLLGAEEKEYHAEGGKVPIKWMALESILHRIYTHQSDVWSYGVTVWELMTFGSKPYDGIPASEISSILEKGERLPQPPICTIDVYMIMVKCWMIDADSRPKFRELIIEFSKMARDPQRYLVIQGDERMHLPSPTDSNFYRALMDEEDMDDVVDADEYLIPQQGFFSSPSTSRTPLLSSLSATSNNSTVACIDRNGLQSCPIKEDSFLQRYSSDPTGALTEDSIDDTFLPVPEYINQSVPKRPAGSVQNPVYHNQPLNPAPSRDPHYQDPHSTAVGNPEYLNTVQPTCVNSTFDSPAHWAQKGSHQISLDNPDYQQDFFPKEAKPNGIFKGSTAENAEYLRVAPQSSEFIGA
For `C=CC(=O)Nc1nc2c(Cc3ccc(F)c(Cl)c3)ncnc2cc1OCCCN1CCC(C)CC1`, the IC50 was 6.61 nM.
`O=C(/C=C/C(=O)NCCCn1ccnc1)Cc1cc2c(Nc3cccc(Br)c3)ncnc2cn1` gave an IC50 of 0.562 nM.
In the case of `CN(N)C/C=C/C(=O)Nc1cc2c(Nc3cccc(Br)c3)ccnc2cn1`, the IC50 is reported as 8.6 nM.
`C=CC(=O)Nc1nc2c(Cc3ccc(F)c(Cl)c3)ncnc2cc1OCCOC` was tested, and the IC50 was 0.977 nM.
`C=CC(=O)Nc1ccc2ncnc(Cc3ccc(F)c(Br)c3)c2c1` showed an IC50 of 0.692 nM.
`COc1cc2ncnc(Nc3cccc(C)c3)c2cc1OC` showed an IC50 of 4.6 nM.
With `Brc1cccc(Nc2ncnc3cc4c(cc23)CN4)c1` the IC50 was 0.437 nM.
In the case of `FC(F)(F)c1ccc(-n2cnnc2SCc2nc(COc3c(Cl)cccc3Cl)no2)cc1`, the IC50 is reported as 6300 nM.
`C=CC(=O)Nc1cc2c(Cc3ccc(F)c(Br)c3)ncnc2cc1OCCCN1CCOCC1` showed an IC50 of 1.82 nM.
For `C=CC(=O)Nc1nc2c(Cc3ccc(F)c(Cl)c3)ncnc2cc1OC`, the IC50 was 0.955 nM.
For `C=CC(=O)Nc1cc2ncnc(Nc3cccc(Cl)c3)c2cn1`, the IC50 was 0.537 nM.
Work on `C=CC(=O)Nc1ccc2ncnc(Cc3ccc(CN(C)C)c(Br)c3)c2c1` yielded an IC50 of 44.7 nM.
`C=CC(=O)Nc1cc2c(Cc3cccc(Br)c3)ncnc2cc1SCCCN(CC)CC` gave an IC50 of 0.776 nM.
Work on `C/C=C/C(=O)Nc1ccc2c(Nc3cccc(Br)c3)ncnc2c1` yielded an IC50 of 0.676 nM.
Work on `CN1Cc2cc3c(Nc4cccc(Br)c4)ncnc3cc21` yielded an IC50 of 0.794 nM.
For `O=C(Nc1cccc(C(F)(F)F)c1)Nc1ncnc2nn3ccccc3c12`, the IC50 was 10000 nM.
For `CCOc1cc2nccc(Nc3cccc(Br)c3)c2cc1NC(=O)/C=C/CN1CCOCC1`, the IC50 was 10300 nM.
Work on `OCC(O)CN1Cc2cc3c(Nc4cccc(Br)c4)ncnc3cc21` (stereo unspecified) yielded an IC50 of 1.58 nM.
`C=CC(=O)Nc1ccc2ncnc(Cc3ccc(OCCN(C)C)c(Br)c3)c2c1` gave an IC50 of 26.9 nM.
For `O=C(O)CCNc1cc2ncnc(Nc3cccc(Br)c3)c2cn1`, the IC50 was 0.603 nM.
`C=CC(=O)C(CCCN1CCOCC1)c1cc2c(Nc3cccc(Br)c3)ncnc2cn1` (stereo unspecified) was tested, and the IC50 was 2.69 nM.
`O=C(CCCN1Cc2cc3c(Nc4cccc(Br)c4)ncnc3cc21)N1CCOCC1` was tested, and the IC50 was 8.71 nM.
`C/C=C/C(=O)Nc1cc2c(Nc3ccc(F)c(Cl)c3)ccnc2cc1CC` showed an IC50 of 7500 nM.
`CN(C)CCCNC(=O)/C=C/C(=O)Cc1cc2c(Nc3cccc(Br)c3)ncnc2cn1` showed an IC50 of 1.1 nM.
`C=CC(=O)N(C)c1nc2c(Cc3ccc(F)c(Cl)c3)ncnc2cc1OCCCN1CCOCC1` showed an IC50 of 20 nM.
`COc1cc2ncnc(Nc3ccc(F)c(Cl)c3)c2cc1CNC(=O)[C@H]1CCCCN1C` showed an IC50 of 8 nM.
`C=C=CC(=O)Cc1ccc2ncnc(Nc3cccc(Br)c3)c2c1` showed an IC50 of 1.58 nM.
Molecule `C=CC(=O)Nc1nc2c(Cc3ccc(F)c(Cl)c3)ncnc2cc1CCCCN1CCOCC1` has an IC50 of 2.69 nM.
`C=CC(=O)Nc1ccc2ncnc(Cc3cccc(Br)c3)c2c1` gave an IC50 of 0.708 nM.
With `C=CC(=O)NC1=CC=C2N=CN=C(Nc3ccc(Oc4ccccc4)cc3)C21` (stereo unspecified) the IC50 was 5.75 nM.
With `C=CC(=O)Cc1cc2c(Nc3cccc(Br)c3)ncnc2cn1` the IC50 was 0.912 nM.
`C=CC(=O)Nc1cc2c(Cc3cccc(Br)c3)ncnc2cc1OCCCn1ccnc1` showed an IC50 of 3.02 nM.
In the case of `CC(=O)/C=C/C(=O)Cc1ccc2ncnc(Nc3cccc(Br)c3)c2c1`, the IC50 is reported as 1.2 nM.
With `C=CC(=O)Nc1cc2c(Cc3cccc(C)c3)ncnc2cc1OCCCN1CCOCC1` the IC50 was 1.51 nM.
Work on `C=CC(=O)NC1=NC=C2N=CN=C(Nc3cccc(C)c3)C21` (stereo unspecified) yielded an IC50 of 0.479 nM.
`C=CC(=O)Nc1nc2c(Cc3ccc(F)c(Cl)c3)ncnc2cc1/C=C/CCN1CCOCC1` gave an IC50 of 0.158 nM.
Work on `CN(C)c1cc2ncnc(Nc3cccc(Br)c3)c2cn1` yielded an IC50 of 0.0891 nM.
`COc1cc(NC(=O)/C=C/CN2CCOCC2)cc2c(Nc3cccc(Br)c3)ccnc12` was tested, and the IC50 was 5390 nM.
`O=C(Cc1c[nH]c2cc3ncnc(Nc4cccc(Br)c4)c3cc12)N1CCOCC1` showed an IC50 of 4.79 nM.
With `COc1cc2ncnc(Nc3ccc(F)c(Cl)c3)c2cc1CN(C)[C@H](C)C(N)=O` the IC50 was 9 nM.
With `C=CC(=O)Nc1ccc2ncnc(Cc3cccc(C)c3)c2c1` the IC50 was 0.417 nM.
`O=C(/C=C\Cl)Cc1cc2c(Nc3cccc(Br)c3)ncnc2cn1` gave an IC50 of 0.692 nM.
Work on `C/C=C/C(=O)Cc1cc2c(Nc3cccc(Br)c3)ncnc2cn1` yielded an IC50 of 0.501 nM.
Work on `CC(C(=O)/C=C/C(=O)NCCCN(C)C)c1cc2c(Nc3cccc(Br)c3)ncnc2cn1` (stereo unspecified) yielded an IC50 of 1.45 nM.
In the case of `CCOC(=O)/C=C/C(=O)Cc1ccc2ncnc(Nc3cccc(Br)c3)c2c1`, the IC50 is reported as 2.69 nM.
Work on `COc1cc2nccc(Nc3ccc(F)c(Cl)c3)c2cc1NC(=O)/C=C/CN1CCOCC1` yielded an IC50 of 13600 nM.
With `C=CC(=O)NC1=CC=C2N=CN=C(Nc3cccc(Cl)c3)C21` (stereo unspecified) the IC50 was 1.58 nM.
In the case of `C=CC(=O)Nc1ccc2ncnc(Cc3ccc(F)c(Cl)c3)c2c1`, the IC50 is reported as 0.759 nM.
Work on `CCN(CC)CCCNC(=O)/C=C/C(=O)Cc1cc2c(Nc3cccc(Br)c3)ncnc2cn1` yielded an IC50 of 0.724 nM.
With `C=CC(=O)Nc1cc2ncnc(Nc3ccc(F)c(Br)c3)c2[nH]1` the IC50 was 1.2 nM.
Work on `O=C(Nc1ccc(C(F)(F)F)cc1)Nc1ncnc2nn3ccccc3c12` yielded an IC50 of 10000 nM.
`O=C(Nc1ccc(F)cc1)Nc1ncnc2nn3ccccc3c12` gave an IC50 of 10000 nM.
In the case of `COc1cc2nccc(Nc3ccc(F)c(Cl)c3)c2cc1NC(=O)/C=C/C(C)N1CCOCC1` (stereo unspecified), the IC50 is reported as 10600 nM.
`COc1cc2ncnc(Nc3ccc(F)c(Cl)c3)c2cc1CN(C)[C@@H](C)C(N)=O` gave an IC50 of 8 nM.
Work on `C=CC(=O)Nc1cc2c(Cc3ccc(F)c(Cl)c3)ncnc2cc1OCCOCCCCO` yielded an IC50 of 1.7 nM.
`O=C(CCn1ncc2cc3c(Nc4cccc(Br)c4)ncnc3cc21)N1CCOCC1` was tested, and the IC50 was 3.72 nM.
In the case of `C=CC(=O)Nc1cc2c(Cc3cccc(C)c3)ncnc2cc1OCCCN1CCC(C)CC1`, the IC50 is reported as 2 nM.
`Nc1ncnc2nn3ccccc3c12` was tested, and the IC50 was 10000 nM.
`O=C(/C=C/CC(=O)Nc1ccc2ncnc(Nc3cccc(Br)c3)c2c1)Nc1ccc2c(Nc3cccc(Br)c3)ncnc2c1` gave an IC50 of 0.447 nM.
For `CCOC(=O)c1ccc(N2CCOCC2)c(NS(=O)(=O)c2cc(Br)c(Cl)s2)c1`, the IC50 was 11100 nM.
`C=CC(=O)Nc1cc2c(Cc3cccc(Br)c3)ncnc2cc1OCCCN1CCC(C)CC1` showed an IC50 of 1.7 nM.
With `C=CC(=O)C(CCCN1CCOCC1)c1ccc2ncnc(Nc3cccc(Br)c3)c2c1` (stereo unspecified) the IC50 was 3.31 nM.
In the case of `N#Cc1cccc(NC(=O)Nc2ncnc3nn4ccccc4c23)c1`, the IC50 is reported as 10000 nM.
Molecule `O=S(=O)(CO)Nc1cc2c(Nc3cccc(Br)c3)ncnc2cn1` has an IC50 of 93.3 nM.
`COc1cc2nccc(Nc3ccc(F)c(Cl)c3)c2cc1NC(=O)/C=C/C(C)N(C)C` (stereo unspecified) gave an IC50 of 5220 nM.
For `CS(=O)(=O)CCN(CCCCOc1ccc2ncnc(Nc3ccc(OCc4ccccc4)cc3)c2c1)C(=O)C(F)(F)F`, the IC50 was 234 nM.
`COC[C@H]1Oc2cc3ncnc(Nc4cccc(Cl)c4)c3cc2O[C@@H]1COC` showed an IC50 of 10.1 nM.
In the case of `C=CC(=O)Nc1cc2c(Cc3ccc(F)c(Cl)c3)ncnc2cc1OCCCN1CCOCC1`, the IC50 is reported as 1.51 nM.
In the case of `CN(C)CCN1Cc2cc3c(Nc4cccc(Br)c4)ncnc3cc21`, the IC50 is reported as 40.7 nM.
Molecule `C=C(C)C(=O)Cc1cc2c(Nc3cccc(Br)c3)ncnc2cn1` has an IC50 of 1.58 nM.
`O=C(O)CN1Cc2cc3c(Nc4cccc(Br)c4)ncnc3cc21` was tested, and the IC50 was 5.13 nM.
For `C=CC(=O)Nc1ccc2ncnc(Cc3ccc(F)c(Cl)c3)c2n1`, the IC50 was 0.759 nM.
With `O=C(Nc1cccc([N+](=O)[O-])c1)Nc1ncnc2nn3ccccc3c12` the IC50 was 10000 nM.
Molecule `C=CC(=O)NC1=CC=C2N=CN=C(Nc3cccc(C)c3)C21` (stereo unspecified) has an IC50 of 0.417 nM.
`C=CC(=O)C(C)c1cc2c(Nc3cccc(Br)c3)ncnc2cn1` (stereo unspecified) showed an IC50 of 0.17 nM.
For `COc1cc2ncnc(Nc3ccc(F)c(Cl)c3)c2cc1CN(C(C)C)[C@@H](C)C(N)=O`, the IC50 was < 1 nM.
With `C=CC(=O)NC1=CC=C2N=CN=C(Nc3ccc(OCc4ccccc4)cc3)C21` (stereo unspecified) the IC50 was 3.63 nM.
`C=CC(=O)Nc1cc2c(Cc3cccc(Br)c3)ncnc2cc1OCCCCN(C)C` showed an IC50 of 3.89 nM.
Molecule `C=C(C)C(=O)Cc1ccc2ncnc(Nc3cccc(Br)c3)c2c1` has an IC50 of 1.2 nM.
Molecule `C=CC(=O)NC1=CC=C2N=CN=C(Nc3cccc(C(F)(F)F)c3)C21` (stereo unspecified) has an IC50 of 0.912 nM.
`O=C(O)/C=C/C(=O)Cc1ccc2ncnc(Nc3cccc(Br)c3)c2c1` showed an IC50 of 0.372 nM.
In the case of `C/C=C/C(=O)Cc1ccc2ncnc(Nc3cccc(Br)c3)c2c1`, the IC50 is reported as 0.55 nM.
`C=CC(=O)Nc1cc2ncnc(Nc3cccc(Br)c3)c2[nH]1` gave an IC50 of 1.1 nM.
With `CCOC(=O)/C=C/C(=O)Cc1cc2c(Nc3cccc(Br)c3)ncnc2cn1` the IC50 was 1.51 nM.
Molecule `C=CC(=O)NC1=NC=C2N=CN=C(Nc3ccc(F)c(Br)c3)C21` (stereo unspecified) has an IC50 of 0.724 nM.
With `C=CC(=O)Nc1ccc2c(Nc3cccc(Br)c3)ncnc2c1` the IC50 was 0.251 nM.
In the case of `O=C(Nc1ccc(Br)cc1)Nc1ncnc2nn3ccccc3c12`, the IC50 is reported as 10000 nM.
Work on `C=CC(=O)NC1=NC=C2N=CN=C(Nc3ccc(F)c(Cl)c3)C21` (stereo unspecified) yielded an IC50 of 0.776 nM.
With `COc1cc2ncnc(Nc3ccc(F)c(Cl)c3)c2cc1CN1CC[C@@H](C(N)=O)C1` the IC50 was 6 nM.

These molecules were tested against T1, Epidermal growth factor receptor (assay: Inhibition of human recombinant EGFR at 100 uM). Details: not given.
With `O=[N+]([O-])c1ccc(N2CCCC2)c2c(O)ncnc12` the inhibition was 0%.
`Cc1cccc(Nc2ccc([N+](=O)[O-])c3ncnc(O)c23)c1` was tested, and the inhibition was 0%.
In the case of `COc1ccc([N+](=O)[O-])c2ncnc(O)c12`, the inhibition is reported as 0%.
In the case of `Nc1ccc(Nc2ccc([N+](=O)[O-])c3ncnc(O)c23)cc1`, the inhibition is reported as 0%.

Each molecule was assayed against T1, Epidermal growth factor receptor (assay: not given). Details: at 100 µM.
With `COc1cc2ncnc(Nc3cccc(C)c3)c2cc1OC` the inhibition was 100%.
Molecule `FC(F)(F)c1ccc(-n2cnnc2SCc2nc(COc3c(Cl)cccc3Cl)no2)cc1` has an inhibition of 77%.
`CN1CCN(c2ccccc2/C=C2/C(=O)Nc3ccccc32)CC1` showed an inhibition of 55%.
Molecule `O=c1[nH]nc2n1-c1ccccc1SC2` has an inhibition of 48%.
For `CCOC(=O)c1ccc(N2CCOCC2)c(NS(=O)(=O)c2cc(Br)c(Cl)s2)c1`, the inhibition was 80%.
Molecule `O=c1[nH]nc(SCCS(=O)(=O)c2cccc(C(F)(F)F)c2)n1-c1ccc(OCc2ccccc2)cc1` has an inhibition of 53%.
Molecule `CC1=NNC2OC(N)=C(C#N)C(c3ccc4c(c3)OCO4)C12` (stereo unspecified) has an inhibition of 44%.

These molecules were tested against T1, Epidermal growth factor receptor (assay: Inhibition of human recombinant EGFR up to 100 uM). Details: not given.
With `FC(F)(F)Oc1ccc(Nc2ccnc3cc(Cl)ccc23)cc1` the Activity was “inactive”.

From ChEMBL document CHEMBL1140899, “Computational studies of epidermal growth factor receptor: docking reliability, three-dimensional quantitative structure-activity relationship analysis, and virtual screening studies” (J Med Chem, 2009)
